# Measurements published in PubChem BioAssay (NCI).
#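 Where inhibition never reached the appropriate level, the endpoint shown equals the highest concentration tested. Otherwise, values were interpolated linearly from a five-concentration, 48-hour dose response in 96-well plates. TGI is the concentration that stops growth completely.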
# What was measured:
# Test in all cases: DTP human tumour cell line panel, 48 h
# NCI/ADR-RES ovarian = tested on: NCI/ADR-RES ovarian
# HCT-15 colon = tested on: HCT-15 colon
# DU-145 prostate = tested on: DU-145 prostate
# 786-0 renal = tested on: 786-0 renal
# KM12 colon = tested on: KM12 colon
# OVCAR-4 ovarian = tested on: OVCAR-4 ovarian
# UO-31 renal = tested on: UO-31 renal
# HCT-116 colon = tested on: HCT-116 colon
# RPMI-8226 leukemia = tested on: RPMI-8226 leukemia
# SW-620 colon = tested on: SW-620 colon
# OVCAR-3 ovarian = tested on: OVCAR-3 ovarian
# SNB-19 CNS = tested on: SNB-19 CNS
# A549 NSCLC = tested on: A549 NSCLC
# SK-OV-3 ovarian = tested on: SK-OV-3 ovarian
# MCF7 breast = tested on: MCF7 breast
# OVCAR-8 ovarian = tested on: OVCAR-8 ovarian
# NCI-H226 lung = tested on: NCI-H226 lung
# NCI-H460 lung = tested on: NCI-H460 lung
# NCI-H522 lung = tested on: NCI-H522 lung
# HOP-62 NSCLC = tested on: HOP-62 NSCLC
# MALME-3M melanoma = tested on: MALME-3M melanoma
# NCI-H23 lung = tested on: NCI-H23 lung
# SK-MEL-2 melanoma = tested on: SK-MEL-2 melanoma
# M14 melanoma = tested on: M14 melanoma
# COLO 205 colon = tested on: COLO 205 colon
# MDA-MB-231 breast = tested on: MDA-MB-231 breast
# SF-295 CNS = tested on: SF-295 CNS
# U251 CNS = tested on: U251 CNS
# SF-539 CNS = tested on: SF-539 CNS
# MOLT-4 leukemia = tested on: MOLT-4 leukemia
# RXF 393 renal = tested on: RXF 393 renal
# HS 578T breast = tested on: HS 578T breast
# SNB-75 CNS = tested on: SNB-75 CNS
# PC-3 prostate = tested on: PC-3 prostate
# MDA-N = tested on: MDA-N
# LOX IMVI melanoma = tested on: LOX IMVI melanoma
# UACC-257 melanoma = tested on: UACC-257 melanoma
# EKVX NSCLC = tested on: EKVX NSCLC
# A498 renal = tested on: A498 renal
# CAKI-1 renal = tested on: CAKI-1 renal
# UACC-62 melanoma = tested on: UACC-62 melanoma
# T-47D breast = tested on: T-47D breast
# TK-10 renal = tested on: TK-10 renal
# SN12C renal = tested on: SN12C renal
# HCC-2998 colon = tested on: HCC-2998 colon
# CCRF-CEM leukemia = tested on: CCRF-CEM leukemia
# K-562 leukemia = tested on: K-562 leukemia
# OVCAR-5 ovarian = tested on: OVCAR-5 ovarian
# SK-MEL-5 melanoma = tested on: SK-MEL-5 melanoma
# HT29 colon = tested on: HT29 colon
# SK-MEL-28 melanoma = tested on: SK-MEL-28 melanoma
# BT-549 breast = tested on: BT-549 breast
# SF-268 CNS = tested on: SF-268 CNS
# MDA-MB-435 = tested on: MDA-MB-435
# ACHN renal = tested on: ACHN renal
# HOP-92 NSCLC = tested on: HOP-92 NSCLC
# HL-60(TB) leukemia = tested on: HL-60(TB) leukemia
# SR leukemia = tested on: SR leukemia
# IGROV1 ovarian = tested on: IGROV1 ovarian
compound,measurement,setting,value
COc1cccc(/C=N/n2c(Cc3ccccc3)n[nH]c2=O)c1,TGI,NCI/ADR-RES ovarian,> 100 µM
same,TGI,HCT-15 colon,> 100 µM
same,TGI,DU-145 prostate,> 100 µM
same,TGI,786-0 renal,> 100 µM
same,TGI,KM12 colon,> 100 µM
same,TGI,OVCAR-4 ovarian,> 100 µM
same,TGI,UO-31 renal,> 100 µM
same,TGI,HCT-116 colon,> 100 µM
same,TGI,RPMI-8226 leukemia,> 100 µM
same,TGI,SW-620 colon,> 100 µM
same,TGI,OVCAR-3 ovarian,> 100 µM
same,TGI,SNB-19 CNS,> 100 µM
same,TGI,A549 NSCLC,> 100 µM
same,TGI,SK-OV-3 ovarian,> 100 µM
same,TGI,MCF7 breast,> 100 µM
same,TGI,OVCAR-8 ovarian,> 100 µM
same,TGI,NCI-H226 lung,> 25.6 µM
same,TGI,NCI-H460 lung,> 100 µM
same,TGI,NCI-H522 lung,> 100 µM
same,TGI,HOP-62 NSCLC,> 100 µM
same,TGI,MALME-3M melanoma,> 100 µM
same,TGI,NCI-H23 lung,> 100 µM
same,TGI,SK-MEL-2 melanoma,> 100 µM
same,TGI,M14 melanoma,> 100 µM
same,TGI,COLO 205 colon,> 100 µM
same,TGI,MDA-MB-231 breast,> 100 µM
same,TGI,SF-295 CNS,> 100 µM
same,TGI,U251 CNS,> 100 µM
same,TGI,SF-539 CNS,> 100 µM
same,TGI,MOLT-4 leukemia,> 100 µM
same,TGI,RXF 393 renal,> 100 µM
same,TGI,HS 578T breast,50 µM
same,TGI,SNB-75 CNS,61.2 µM
same,TGI,PC-3 prostate,> 100 µM
same,TGI,MDA-N,> 100 µM
same,TGI,LOX IMVI melanoma,> 100 µM
same,TGI,UACC-257 melanoma,> 100 µM
same,TGI,EKVX NSCLC,> 100 µM
same,TGI,A498 renal,> 100 µM
same,TGI,CAKI-1 renal,> 100 µM
same,TGI,UACC-62 melanoma,> 100 µM
same,TGI,T-47D breast,> 100 µM
same,TGI,TK-10 renal,> 100 µM
same,TGI,SN12C renal,> 60.3 µM
same,TGI,HCC-2998 colon,> 100 µM
same,TGI,CCRF-CEM leukemia,> 100 µM
same,TGI,K-562 leukemia,> 100 µM
same,TGI,OVCAR-5 ovarian,> 100 µM
same,TGI,SK-MEL-5 melanoma,> 100 µM
same,TGI,HT29 colon,> 100 µM
same,TGI,SK-MEL-28 melanoma,> 100 µM
same,TGI,BT-549 breast,> 100 µM
same,TGI,SF-268 CNS,> 100 µM
same,TGI,MDA-MB-435,> 100 µM
same,TGI,ACHN renal,> 100 µM
CC(C)CC(NC(=O)C(C)(CI)Cc1ccccc1)C(=O)Nc1ccccc1 (configuration not stated),TGI,NCI/ADR-RES ovarian,> 100 µM
same,TGI,HCT-15 colon,> 100 µM
same,TGI,DU-145 prostate,> 100 µM
same,TGI,786-0 renal,> 100 µM
same,TGI,KM12 colon,> 100 µM
same,TGI,OVCAR-4 ovarian,> 100 µM
same,TGI,UO-31 renal,> 100 µM
same,TGI,HCT-116 colon,> 100 µM
same,TGI,RPMI-8226 leukemia,> 100 µM
same,TGI,SW-620 colon,> 100 µM
same,TGI,OVCAR-3 ovarian,> 100 µM
same,TGI,SNB-19 CNS,> 100 µM
same,TGI,A549 NSCLC,> 100 µM
same,TGI,SK-OV-3 ovarian,> 100 µM
same,TGI,HOP-92 NSCLC,> 100 µM
same,TGI,HL-60(TB) leukemia,> 100 µM
same,TGI,MCF7 breast,> 100 µM
same,TGI,OVCAR-8 ovarian,> 100 µM
same,TGI,NCI-H226 lung,> 100 µM
same,TGI,NCI-H460 lung,> 100 µM
same,TGI,NCI-H522 lung,> 100 µM
same,TGI,MALME-3M melanoma,> 100 µM
same,TGI,NCI-H23 lung,> 100 µM
same,TGI,SK-MEL-2 melanoma,> 100 µM
same,TGI,M14 melanoma,> 100 µM
same,TGI,COLO 205 colon,> 100 µM
same,TGI,MDA-MB-231 breast,> 100 µM
same,TGI,SF-295 CNS,> 100 µM
same,TGI,U251 CNS,> 100 µM
same,TGI,SF-539 CNS,> 100 µM
same,TGI,MOLT-4 leukemia,> 100 µM
same,TGI,SR leukemia,> 100 µM
same,TGI,RXF 393 renal,> 100 µM
same,TGI,IGROV1 ovarian,> 100 µM
same,TGI,SNB-75 CNS,> 100 µM
same,TGI,PC-3 prostate,> 100 µM
same,TGI,MDA-N,> 100 µM
same,TGI,LOX IMVI melanoma,> 100 µM
same,TGI,UACC-257 melanoma,> 100 µM
same,TGI,EKVX NSCLC,> 100 µM
same,TGI,A498 renal,> 100 µM
same,TGI,CAKI-1 renal,> 100 µM
same,TGI,UACC-62 melanoma,> 100 µM
same,TGI,TK-10 renal,> 100 µM
same,TGI,SN12C renal,> 100 µM
same,TGI,HCC-2998 colon,> 100 µM
same,TGI,CCRF-CEM leukemia,> 100 µM
same,TGI,K-562 leukemia,> 100 µM
same,TGI,OVCAR-5 ovarian,> 100 µM
same,TGI,SK-MEL-5 melanoma,> 100 µM
same,TGI,MDA-MB-435,> 100 µM
same,TGI,ACHN renal,> 100 µM
Cc1[nH]c(=O)nc2nc3cc(Cl)cc(Cl)c3c(NC(C)(CO)CO)c12,TGI,NCI/ADR-RES ovarian,> 100 µM
same,TGI,HCT-15 colon,> 100 µM
same,TGI,DU-145 prostate,> 100 µM
same,TGI,786-0 renal,91.6 µM
same,TGI,KM12 colon,> 100 µM
same,TGI,OVCAR-4 ovarian,> 100 µM
same,TGI,UO-31 renal,> 100 µM
same,TGI,HCT-116 colon,> 100 µM
same,TGI,SW-620 colon,> 100 µM
same,TGI,OVCAR-3 ovarian,> 100 µM
same,TGI,SNB-19 CNS,> 100 µM
same,TGI,A549 NSCLC,> 100 µM
same,TGI,SK-OV-3 ovarian,> 100 µM
same,TGI,HOP-92 NSCLC,57.7 µM
same,TGI,MCF7 breast,> 100 µM
same,TGI,OVCAR-8 ovarian,> 100 µM
same,TGI,NCI-H226 lung,> 100 µM
same,TGI,NCI-H460 lung,> 100 µM
same,TGI,NCI-H522 lung,> 100 µM
same,TGI,HOP-62 NSCLC,83.7 µM
same,TGI,MALME-3M melanoma,> 100 µM
same,TGI,NCI-H23 lung,> 100 µM
same,TGI,SK-MEL-2 melanoma,> 100 µM
same,TGI,M14 melanoma,> 100 µM
same,TGI,COLO 205 colon,> 100 µM
same,TGI,MDA-MB-231 breast,36.9 µM
same,TGI,SF-295 CNS,> 100 µM
same,TGI,U251 CNS,28.8 µM
same,TGI,SF-539 CNS,> 100 µM
same,TGI,MOLT-4 leukemia,> 100 µM
same,TGI,RXF 393 renal,> 100 µM
same,TGI,IGROV1 ovarian,> 100 µM
same,TGI,HS 578T breast,> 100 µM
same,TGI,SNB-75 CNS,38.6 µM
same,TGI,PC-3 prostate,> 100 µM
same,TGI,MDA-N,> 100 µM
same,TGI,LOX IMVI melanoma,> 100 µM
same,TGI,UACC-257 melanoma,> 100 µM
same,TGI,EKVX NSCLC,> 100 µM
same,TGI,A498 renal,99.4 µM
same,TGI,CAKI-1 renal,> 100 µM
same,TGI,UACC-62 melanoma,> 100 µM
same,TGI,T-47D breast,> 100 µM
same,TGI,TK-10 renal,84.1 µM
same,TGI,SN12C renal,> 100 µM
same,TGI,HCC-2998 colon,> 100 µM
same,TGI,CCRF-CEM leukemia,> 100 µM
same,TGI,K-562 leukemia,> 100 µM
same,TGI,SK-MEL-5 melanoma,> 100 µM
same,TGI,HT29 colon,> 100 µM
same,TGI,SK-MEL-28 melanoma,> 100 µM
same,TGI,BT-549 breast,> 100 µM
same,TGI,SF-268 CNS,> 100 µM
same,TGI,MDA-MB-435,> 100 µM
same,TGI,ACHN renal,> 100 µM
